Columns and labels:
Stromelysin-1 (MMP-3) = Stromelysin-1 (MMP-3) (Homo sapiens, UniProt P08254); assay: Inhibition of purified stromelysin-1 in vitro; type: biochemical
Description: (§1) The experiments were carried out in vitro using purified human enzymes. The enzyme substrates used were substrates to be measured by photometry or fluorometry.

[1] = target: Human leucocyte collagenase (MMP-8) (Homo sapiens, UniProt P22894); assay: Inhibition of purified human leucocyte collagenase in vitro; type: biochemical
Description: as §1

[2] = target: Human gelatinase B (MMP-9) (Homo sapiens, UniProt P14780); assay: Inhibition of purified human gelatinase B in vitro; type: biochemical
Description: as §1

Human elastase = target: T1, Human elastase (Homo sapiens, UniProt P08246); assay: Inhibition of purified human elastase in vitro; type: biochemical
T1 sequence (P08246 30-247 limits assumed): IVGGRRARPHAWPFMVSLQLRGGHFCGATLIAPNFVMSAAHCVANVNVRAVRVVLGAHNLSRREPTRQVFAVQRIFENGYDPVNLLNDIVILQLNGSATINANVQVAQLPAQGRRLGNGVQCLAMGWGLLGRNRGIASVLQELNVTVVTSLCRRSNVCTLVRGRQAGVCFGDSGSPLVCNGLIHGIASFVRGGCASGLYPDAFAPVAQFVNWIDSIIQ
Description: as §1

[3] = system: mesenchymal cells from the limb buds of murine embryos (chondrocytes); assay: Organoid model of cartilage formation: mineralisation in the presence of LPS; type: cell-based; conditions: concentration of 10 μm; calcium content of extracellular matrix after culturing for 14 days
Description: In a further in vitro experiment, the effectiveness of the compounds as regards inflammatory diseases was tested in an organoid model of cartilage formation. For that model, mesenchymal cells from the limb buds of murine embryos were placed in cell culture. In the cell culture, the cells formed an extracellular matrix corresponding to joint cartilage. Mineralisation of the extracellular matrix was induced by addition of β-glycerophosphate. Cartilage formation and mineralisation were inhibited by addition of bacterial lipopolysaccharide (LPS) as inflammation mediator. The effect of the compounds on the LPS-induced impairment of mineralisation was examined by measuring the calcium content of the extracellular matrix by flame photometry after culturing for 14 days.
The values indicate the percentage increase in mineralisation in comparison with the LPS-treated culture.

[4] = target: T2, Human fibroblast collagenase (MMP-1) (Homo sapiens, UniProt P03956); assay: Inhibition of purified human fibroblast collagenase in vitro; type: biochemical; conditions: read-out: Human fibroblast collagenase (MMP-1): % inhibition at concentration
T2 sequence (P03956 100-469): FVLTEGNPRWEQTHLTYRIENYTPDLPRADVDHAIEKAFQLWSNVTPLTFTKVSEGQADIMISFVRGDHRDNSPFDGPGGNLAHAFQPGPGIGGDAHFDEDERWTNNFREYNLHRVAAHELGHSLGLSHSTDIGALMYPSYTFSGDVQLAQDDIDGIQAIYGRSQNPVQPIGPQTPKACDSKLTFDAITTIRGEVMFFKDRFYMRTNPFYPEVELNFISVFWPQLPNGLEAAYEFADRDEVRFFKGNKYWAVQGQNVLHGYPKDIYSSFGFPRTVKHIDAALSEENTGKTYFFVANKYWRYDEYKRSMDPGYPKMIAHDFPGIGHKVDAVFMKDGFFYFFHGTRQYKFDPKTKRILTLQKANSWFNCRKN
Description: as §1

Chain of Stromelysin-1 (MMP-3) (P08254 100-477): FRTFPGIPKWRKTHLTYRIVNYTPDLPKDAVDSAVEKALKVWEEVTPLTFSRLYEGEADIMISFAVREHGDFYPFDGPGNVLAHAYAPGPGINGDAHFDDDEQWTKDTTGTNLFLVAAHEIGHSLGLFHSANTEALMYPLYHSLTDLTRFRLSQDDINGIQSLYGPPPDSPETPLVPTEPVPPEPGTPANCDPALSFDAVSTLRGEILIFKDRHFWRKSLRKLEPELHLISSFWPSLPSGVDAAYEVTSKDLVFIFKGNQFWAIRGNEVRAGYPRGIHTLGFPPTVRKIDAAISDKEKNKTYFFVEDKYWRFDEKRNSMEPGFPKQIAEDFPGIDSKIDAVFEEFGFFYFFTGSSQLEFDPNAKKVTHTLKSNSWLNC
Chain of Human leucocyte collagenase (MMP-8) (P22894 101-467): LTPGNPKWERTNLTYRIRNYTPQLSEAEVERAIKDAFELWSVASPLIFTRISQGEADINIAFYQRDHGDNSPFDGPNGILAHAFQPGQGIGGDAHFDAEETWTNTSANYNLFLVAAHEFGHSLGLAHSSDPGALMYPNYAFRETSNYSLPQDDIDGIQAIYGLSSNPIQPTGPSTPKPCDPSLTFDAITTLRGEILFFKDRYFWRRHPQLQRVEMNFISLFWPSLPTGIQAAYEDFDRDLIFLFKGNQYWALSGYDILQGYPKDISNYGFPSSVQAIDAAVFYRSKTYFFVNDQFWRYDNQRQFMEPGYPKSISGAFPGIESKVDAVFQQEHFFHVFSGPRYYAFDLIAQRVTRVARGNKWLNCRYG
Chain of Human gelatinase B (MMP-9) (P14780 94-707): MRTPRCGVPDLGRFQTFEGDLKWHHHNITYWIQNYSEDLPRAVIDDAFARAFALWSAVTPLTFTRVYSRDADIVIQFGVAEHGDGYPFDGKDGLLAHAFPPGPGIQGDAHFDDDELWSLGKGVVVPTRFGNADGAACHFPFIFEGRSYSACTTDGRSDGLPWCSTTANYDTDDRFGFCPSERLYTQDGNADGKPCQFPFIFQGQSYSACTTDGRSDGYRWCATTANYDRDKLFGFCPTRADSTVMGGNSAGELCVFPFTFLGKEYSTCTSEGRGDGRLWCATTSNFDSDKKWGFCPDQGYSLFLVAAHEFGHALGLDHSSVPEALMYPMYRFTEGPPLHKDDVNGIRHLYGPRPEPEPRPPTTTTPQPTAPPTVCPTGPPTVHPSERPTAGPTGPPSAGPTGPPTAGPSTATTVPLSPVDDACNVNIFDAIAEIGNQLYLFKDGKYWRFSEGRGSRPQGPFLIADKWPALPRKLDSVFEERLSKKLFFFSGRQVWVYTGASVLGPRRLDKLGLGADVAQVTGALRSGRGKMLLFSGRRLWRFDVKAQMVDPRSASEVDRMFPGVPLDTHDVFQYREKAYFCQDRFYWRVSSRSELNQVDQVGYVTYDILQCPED

SMILES: COC(=O)C1=Cc2cc(O)c(O)c(O)c2CC1 [Example 1, 5,6,7-trihydroxy-3,4-dihydronaphthalene-2-carboxylic acid methyl ester]
- IC50 (Stromelysin-1 (MMP-3)): 850 µM
- IC50 [1]: 60 µM
- IC50 [2]: 72 µM
- IC50 (Human elastase): 5.5 µM
- Chondrocytes: Mineralisation in the presence of LPS; action (percentage increase in mineralisation in comparison with the LPS-treated culture) [3]: +42%

SMILES: CCCCCC#Cc1ccc(O)c(O)c1C=CC(=O)OC [Example 2, 3-(6-hept-1-ynyl-2,3-dihydroxy-phenyl)-acrylic acid methyl ester]
- IC50 [1]: 173 µM
- IC50 (Human elastase): 2 µM
- Chondrocytes: Mineralisation in the presence of LPS; action (percentage increase in mineralisation in comparison with the LPS-treated culture) [3]: +38%

SMILES: CCCCCCCCCOc1ccc(O)c(O)c1 [Example 3, 4-nonyloxy-1,2-benzene diol]
- IC50 (Stromelysin-1 (MMP-3)): 320 µM
- inhibition at 100 µM ([1]; 100 μM, read-out: Human leucocyte collagenase (MMP-8): % inhibition at concentration): 40%
- IC50 (Human elastase): 1.6 µM
- Chondrocytes: Mineralisation in the presence of LPS; action (percentage increase in mineralisation in comparison with the LPS-treated culture) [3]: +43%

SMILES: OCC#CCCCCCCC#Cc1ccc(O)c(O)c1 [Example 4, 4-(11-hydroxy-undeca-1,9-diynyl)-1,2-benzene diol]
- IC50 (Human elastase): 55 µM
- Chondrocytes: Mineralisation in the presence of LPS; action (percentage increase in mineralisation in comparison with the LPS-treated culture) [3]: +12%

SMILES: Oc1ccc(C=Cc2ccc3ccccc3c2)cc1O [Example 5, 4-(2-naphth-2-yl-vinyl)-1,2-benzene diol]
- inhibition at 100 µM [4]: 40%
- inhibition at 100 µM (Stromelysin-1 (MMP-3); 100 μM, read-out: Stromelysin-1 (MMP-3) % inhibition at concentration): 22%
- IC50 [1]: 100 µM
- IC50 [2]: 32 µM
- IC50 (Human elastase): 0.125 µM
- Chondrocytes: Mineralisation in the presence of LPS; action (percentage increase in mineralisation in comparison with the LPS-treated culture) [3]: +81%

SMILES: O=C(c1ccc(O)c(O)c1)c1cc(-c2ccccc2)[nH]n1 [Example 6, (3,4-dihydroxy-phenyl)(5-phenyl-1H-pyrazol-3-yl)-methanone]
- Chondrocytes: Mineralisation in the presence of LPS; action (percentage increase in mineralisation in comparison with the LPS-treated culture) [3]: +17%
